Where “and” joins values, the source holds several entries; their conditions need not be identical. Equal values may be shown once.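 Test compounds were applied to cells in 96-well plates for 48 hours at 5 doses. Here, GI50 denotes the concentration required for 50% inhibition of growth. Definition used: TGI = concentration required for complete inhibition of growth.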 Where only a bound is given, the exact number is not on record here.

Test systems include DU-145 prostate; NCI-H522 lung; SNB-19 CNS; MOLT-4 leukemia; M14 melanoma; SK-OV-3 ovarian; NCI-H23 lung; IGROV1 ovarian; UACC-257 melanoma; ACHN renal.
Experiment in all cases: NCI-60 cell line screen, 48 h

On to `O=c1[nH]c2ccc(O)cc2o1`, for which the TGI in the test with DU-145 prostate, in the test with NCI-H522 lung, in the test on SNB-19 CNS, in the test on MOLT-4 leukemia, with M14 melanoma and in the test with SK-OV-3 ovarian was > 100 µM each time. Besides, the TGI with NCI-H23 lung, in the test with IGROV1 ovarian, with UACC-257 melanoma and with ACHN renal was > 100 µM each time.
As to `CS(=O)(=O)Nc1cc(-c2ccc3ncnc(Nc4c(Cl)ccc5c4OCO5)c3c2)cnc1Cl`, the GI50 in the test on DU-145 prostate was 0.24 µM; in the test on NCI-H522 lung, 0.224 µM; in the test with SNB-19 CNS, 0.244 µM; with MOLT-4 leukemia, 0.165 µM; in the test on M14 melanoma, 0.2 µM; in the test with SK-OV-3 ovarian it was 0.131 µM. Further, the GI50 in the test with NCI-H23 lung is 0.25 µM; in the test on IGROV1 ovarian it was 0.0332 µM; in the test on UACC-257 melanoma, 0.208 µM; in the test on ACHN renal, 0.186 µM. The TGI with DU-145 prostate came out at 5.01 µM; with NCI-H522 lung it was 2.56 µM; with SNB-19 CNS it was 3.42 µM; with MOLT-4 leukemia it was 0.76 µM; with M14 melanoma, 1.48 µM; in the test on SK-OV-3 ovarian it was 0.759 µM. Moreover, the TGI was 4 µM with NCI-H23 lung, 0.209 µM in the test with IGROV1 ovarian, 3.32 µM in the test on UACC-257 melanoma and > 48.1 µM with ACHN renal.
As for `CC12CCC3c4ccc(O)cc4CCC3C1C/C(=N\O)C2O` (stereo unspecified), the TGI with DU-145 prostate, with NCI-H522 lung, with SNB-19 CNS, in the test on MOLT-4 leukemia, in the test on M14 melanoma and in the test on SK-OV-3 ovarian was > 100 µM throughout. Also, the TGI in the test with NCI-H23 lung, in the test on IGROV1 ovarian, with UACC-257 melanoma and with ACHN renal was > 100 µM each time.
Take `CC(C)=CCc1cc(O)cc2c1OC(C=C(C)C)C1=C2C(=O)C2=C(C1=O)S(=O)(=O)CCN2` (stereo unspecified): the GI50 is 2.93 µM in the test with DU-145 prostate; 2.94 µM with NCI-H522 lung; 2.78 µM with SNB-19 CNS; 3.4 µM in the test with MOLT-4 leukemia; 2.92 µM in the test with M14 melanoma; 8.06 µM in the test with SK-OV-3 ovarian. Further, the GI50 is 3.85 µM with NCI-H23 lung, 3.23 µM in the test on IGROV1 ovarian, 2.56 µM with UACC-257 melanoma and 6.14 µM in the test on ACHN renal. Moreover, the TGI in the test with DU-145 prostate is 5.37 µM; in the test on NCI-H522 lung it was 7.03 µM; in the test on SNB-19 CNS, 5.15 µM; in the test on MOLT-4 leukemia it was 8.99 µM; in the test with M14 melanoma, 5.59 µM; with SK-OV-3 ovarian it was > 16.7 µM. Besides, the TGI in the test with NCI-H23 lung is 12.9 µM; in the test with IGROV1 ovarian, 9.17 µM; in the test with UACC-257 melanoma, 4.97 µM; with ACHN renal it was > 16.7 µM.
Consider `COc1ccc2c(c1)c[n+](C)c1c3cc(OC)c(OC)cc3ccc21`, for which the GI50 in the test with DU-145 prostate was 3.1 µM and 8.21 µM; in the test with MOLT-4 leukemia, 0.358 µM and 1.7 µM; with M14 melanoma, 1.41 µM and 4.48 µM; in the test with NCI-H23 lung, 1.48 µM and 3.35 µM; in the test with IGROV1 ovarian it was 1.39 µM and 4.4 µM; in the test with UACC-257 melanoma, 1.8 µM and 13.5 µM. Besides, the GI50 in the test on ACHN renal was 2.42 µM and 9.86 µM. Besides, the TGI with DU-145 prostate was 11.4 µM and 21.3 µM; in the test with NCI-H522 lung, 2.33 µM and 4.34 µM; in the test with SNB-19 CNS, 8.1 µM and 13.8 µM; with MOLT-4 leukemia it was 3.81 µM and 17.9 µM; in the test with M14 melanoma, 3.05 µM and 14.3 µM; with SK-OV-3 ovarian, 29.4 µM. Moreover, the TGI in the test on NCI-H23 lung is 3.08 µM and 11.8 µM; in the test with IGROV1 ovarian, 2.85 µM and 15.8 µM; in the test with UACC-257 melanoma, 4.36 µM and 30.8 µM; in the test with ACHN renal, 5.01 µM and 23.8 µM.
Take `C[C@H](Nc1cc(Cl)nc2c1cnn2[C@@H]1O[C@H](COP(=O)(O)CP(=O)(O)O)[C@@H](O)[C@H]1O)c1ccccc1F`: the GI50 in the test with DU-145 prostate, in the test with NCI-H522 lung, with SNB-19 CNS, in the test on MOLT-4 leukemia, with M14 melanoma and in the test on SK-OV-3 ovarian was > 100 µM each time. Also, the GI50 in the test on NCI-H23 lung, with IGROV1 ovarian, in the test on UACC-257 melanoma and with ACHN renal was > 100 µM each time. The TGI in the test on DU-145 prostate, in the test with NCI-H522 lung, in the test on SNB-19 CNS, in the test with MOLT-4 leukemia, with M14 melanoma and with SK-OV-3 ovarian was > 100 µM each time. Besides, the TGI in the test with NCI-H23 lung, in the test on IGROV1 ovarian, in the test on UACC-257 melanoma and in the test with ACHN renal was > 100 µM in each case.
For `COc1ccc(-c2cc(/C=C/C(=O)c3ccc(OC)c(OC)c3)[nH]n2)cc1`, the GI50 in the test with DU-145 prostate was 1.4 µM; in the test with NCI-H522 lung, 0.41 µM; in the test on SNB-19 CNS it was 1.88 µM; in the test with MOLT-4 leukemia, 2.67 µM; in the test on M14 melanoma it was 2.17 µM; in the test with SK-OV-3 ovarian, 5.56 µM. Further, the GI50 in the test on NCI-H23 lung was 2.47 µM; in the test with IGROV1 ovarian, 1.57 µM; in the test with UACC-257 melanoma, 1.73 µM; in the test with ACHN renal, 1.68 µM. Further, the TGI came to 2.81 µM with DU-145 prostate; 1.39 µM in the test with NCI-H522 lung; 5.28 µM in the test with SNB-19 CNS; 8 µM in the test on MOLT-4 leukemia; 4.97 µM in the test with M14 melanoma; 17.1 µM with SK-OV-3 ovarian. The TGI in the test with NCI-H23 lung amounted to 6.33 µM; in the test on IGROV1 ovarian it was 3.65 µM; in the test with UACC-257 melanoma, 3.65 µM; in the test with ACHN renal, 3.83 µM.
For the compound `CN(C)C/C=C/C(=O)Nc1cc2c(Nc3ccc(F)c(Cl)c3)ncnc2cc1O[C@H]1CCOC1`, the GI50 is 0.884 µM and 0.244 µM in the test on DU-145 prostate; 0.0189 µM and 0.00532 µM in the test with NCI-H522 lung; 2.76 µM and 2.42 µM in the test on SNB-19 CNS; 2.43 µM and 1.45 µM in the test with MOLT-4 leukemia; 1.39 µM and 1.42 µM in the test on M14 melanoma; < 0.01 µM and 0.00185 µM with SK-OV-3 ovarian. Moreover, the GI50 with NCI-H23 lung was 1.96 µM and 2.49 µM; with UACC-257 melanoma, 1.46 µM and 3.34 µM; with ACHN renal it was < 0.01 µM and 0.00252 µM. Also, the TGI in the test with DU-145 prostate was 12.7 µM and > 10 µM; in the test on NCI-H522 lung, 1.15 µM and 2.74 µM; in the test on SNB-19 CNS, 15.7 µM and > 10 µM; with MOLT-4 leukemia, 11.3 µM and 7.24 µM; in the test on M14 melanoma, 2.99 µM and 6.61 µM; in the test on SK-OV-3 ovarian, 0.322 µM and 0.327 µM. Further, the TGI is 8.66 µM and > 10 µM in the test on NCI-H23 lung; 12.5 µM and 2.35 µM with IGROV1 ovarian; 3.09 µM and > 10 µM with UACC-257 melanoma; 13.1 µM and > 10 µM in the test with ACHN renal.

Values taken from PubChem BioAssay (NCI).
